Measured values: the METLIN SMRT retention time set (Domingo-Almenara et al. 2019)

experiment: gradient 5% acetonitrile 3 min, to 50% in 2 min, to 85% in 15 min, held 3 min, 100 µL/min; details: column: Zorbax Extend-C18 2.1 x 50 mm; eluents: water / acetonitrile, 0.1% formic acid
In short: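 Retention times come from adduct peaks that were picked computationally and then checked by hand. The standards, pure and pooled in mixtures of ~100 molecules, were run on a Zorbax Extend-C18 column (2.1 × 50 mm, 1.8 μm) at 100 μL/min with water and acetonitrile, each with 0.1% formic acid. Detection was by quadrupole time-of-flight mass spectrometry in positive and negative ionization mode, with a dead volume of 40 μL and a dwell volume of 900 μL.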

Row | RP-LC retention time [s] | SMILES
1 | 728 | O=C(Cn1ccc2sccc2c1=O)Nc1ccc(F)cc1
2 | 722 | COC(=O)c1ccc(C(=O)OC)c(NC(=O)N2CCC(CN3CC(C)CC(C)C3)CC2)c1 (stereo unspecified)
3 | 770 | O=C(Nc1cccc(-c2ccc(N3CCOCC3)nn2)c1)Nc1ccc(F)c(Cl)c1
4 | 1250 | COc1cccc(C2Cn3nnc(-c4nc(-c5cccc(Cl)c5)no4)c3CO2)c1 (stereo unspecified)
5 | 903 | Cc1ccccc1OCC(=O)NC(C)c1ccccc1 (stereo unspecified)
6 | 757 | CN1c2cc(Cl)ccc2C(=O)NC12CCN(C(=O)NCCc1ccccc1)CC2
7 | 854 | CCOC(=O)c1ccc(NC(=O)Cn2c(=O)n(-c3ccccc3)c(=O)c3c2cc(C)n3C)cc1
8 | 578 | Cc1cccc(Nc2ccc(N3CCN(C(=O)c4ccc(Br)o4)CC3)nn2)n1
9 | 630 | Cc1ccc(NC(=O)Nc2c(-c3ccncc3)nc3ccccn23)cc1F
10 | 914 | Cc1cc(C)n(-c2ccc(SCC(=O)N3CCCc4ccccc43)nn2)n1
11 | 889 | COc1ccc(C2CC(=O)N(c3ccc(C)cc3C)C(=O)C2)cc1OC
12 | 965 | Cc1ccc(CNC(=O)C2(C)CCN(S(=O)(=O)c3ccc(F)cc3)CC2)cc1
13 | 687 | O=C(O)c1cccn2c(=O)c3ccc(F)cc3nc12
14 | 923 | COc1cc(Cl)ccc1C(=O)N1CCN(c2cc(-c3ccc(Cl)cc3)[nH]n2)CC1
15 | 1010 | COc1ccc(-c2noc(-c3ccc(=O)n(Cc4c(F)cccc4Cl)c3)n2)cc1
16 | 860 | O=C(Nc1ccc(F)cc1)C1CCCN(C(=O)c2ccc(F)c(F)c2)C1 (stereo unspecified)
17 | 691 | CCn1cc(CCNC(=O)c2ccccc2Cl)c2cccnc21
18 | 1070 | Cc1cc(C)c(S(=O)(=O)N2CCc3c(c(-c4nnc(-c5ccccc5F)o4)nn3C)C2)cc1C
19 | 664 | CCn1c(SC)nnc1-c1nn(C)c2c1CN(C(C)=O)CC2
20 | 577 | CCOc1ccc(CN2CCc3nc(N4CCOCC4)ncc3C2)cc1OCC
21 | 962 | COc1ccc(-c2noc(Cn3nc(-c4ccc(C)cc4)ccc3=O)n2)cc1OC
22 | 1010 | O=C(Cc1ccc(F)cc1)N1CCCC1c1nc(-c2ccc(F)cc2)no1 (stereo unspecified)

Row | RP-LC retention time [s] | SMILES
23 | 588 | COc1cccc(NC(=O)N2CCN(c3ccc(Nc4cc(C)ccn4)nn3)CC2)c1
24 | 686 | CC(C)NC(=O)C1CCN(C(=O)c2ncn3c2COC(c2ccccc2)C3)CC1 (stereo unspecified)
25 | 821 | CCCNC(=O)c1nc(-c2ccc3c(c2)OCC(=O)N3CC)no1
26 | 952 | Cc1ccc(C)c(N2CCN(c3ccnc(SCC(=O)NCc4ccccc4Cl)n3)CC2)c1
27 | 850 | CCn1nc(C)c(S(=O)(=O)N2CCN(C(=O)C(C)Oc3cccc(Cl)c3)CC2)c1C (stereo unspecified)
28 | 784 | O=C(Nc1cc(-c2cccs2)nn1CCO)C1COc2ccccc2O1 (stereo unspecified)
29 | 629 | Cc1ccc(-c2noc(Cn3ccnc3C)n2)cc1
30 | 848 | CCn1cc(S(=O)(=O)Nc2ccc(F)c(F)c2)c2cccnc21
31 | 789 | N#Cc1nc(-c2cccs2)oc1N1CCN(C(=O)c2ccco2)CC1
32 | 589 | O=C(NCc1cccnc1)c1nc2ccccn2c1-c1ccsc1
33 | 621 | Cc1cc(C(N)=O)c2cccc(Cl)c2n1
34 | 660 | COc1ccc(Cl)cc1S(=O)(=O)N1CCCC(C(=O)NCc2ccccn2)C1 (stereo unspecified)
35 | 1110 | O=S(=O)(c1ccc(-c2cc(C(F)(F)F)on2)o1)N1CCCCC1
36 | 560 | CN(C)C(=O)c1cc2c(s1)CCC(C(=O)NCCc1ccccn1)C2 (stereo unspecified)
37 | 694 | CN(Cc1nc(-c2ccc(N3CCSCC3)nc2)no1)C1CCCCC1
38 | 778 | Cc1ncc2c(n1)CCN(S(=O)(=O)c1ccc(Br)s1)C2
39 | 618 | O=C(NCC1CCCO1)C1CCN(c2ncnc3c2oc2ccccc23)CC1 (stereo unspecified)
40 | 733 | O=C(c1ccc2c(c1)OCO2)N1CCN(c2cc(-c3ccccc3)[nH]n2)CC1
41 | 936 | COC(=O)C1=C(C)N(C(C)C)C(=O)C1(NC(=O)CCc1ccccc1)C(F)(F)F (stereo unspecified)
42 | 757 | CCN(C(=O)Cn1c(C(C)C)nc2c(c1=O)CN(Cc1ccccc1)CC2)c1ccccc1
43 | 860 | COc1ccc(NC(=O)C2CCN(c3nc4ccc(-c5cncnc5)nc4s3)CC2)cc1
44 | 624 | COc1ccc(N2CCN(C(=O)CN3C(=O)CN(C)C(=O)c4ccccc43)CC2)cc1

Row | RP-LC retention time [s] | SMILES
45 | 576 | CCOC(=O)c1c(CN(C)C)n(-c2ccccc2)c2cc(-c3cccnc3)c(O)cc12
46 | 766 | COc1ccc(C(=O)N2CCCn3nc(-c4cccs4)cc3C2)cn1
47 | 720 | CCn1ccc(NC(=O)c2ccccc2C)n1
48 | 1260 | Cc1ccc(C2Cn3nc(-c4nc(-c5ccccc5)no4)cc3CO2)cc1 (stereo unspecified)
49 | 1060 | O=S(=O)(c1ccc2c(c1)CCC2)N1CCCn2nc(-c3cccs3)cc2C1
50 | 996 | Nc1c(C(=O)Nc2ccccc2F)sc2nc3c(cc12)CCCC3
51 | 775 | COc1cc(NC(=O)N2CCN(c3ccc(=O)n(-c4ccc(C)c(C)c4)n3)CC2)cc(OC)c1OC
52 | 894 | Cc1cc(C(=O)Nc2nnc(SCC(=O)N3CCCc4ccccc43)s2)c(C)o1
53 | 1160 | CC(C)CC(=O)Nc1ccc(S(=O)(=O)N2CCCC2c2nc(-c3ccc(Cl)cc3)no2)cc1 (stereo unspecified)
54 | 1130 | O=c1c2ccccc2c(-c2nc(-c3cccnc3)no2)cn1-c1cccc(Cl)c1
55 | 778 | Cc1cc(NC(=O)C(C)C)nn1Cc1ccccc1
56 | 595 | Cc1cc(C)c2c(N(C)C)nc(C(=O)Nc3ccc(N4CCOCC4)cc3)nc2n1
57 | 635 | Cn1c(C(=O)N2CCN(c3ccccn3)CC2)c(N2CCCC2=O)c2cc(F)ccc21
58 | 962 | CCn1cc(CCN2CCN(S(=O)(=O)c3cccs3)CC2)c2cccnc21
59 | 638 | CC(C)n1cnc2cc(CNC(=O)c3cc(F)ccc3Cl)ccc21
60 | 1130 | Cc1ccc(F)cc1NC(=O)c1csc(-c2cn(C)c3ncccc23)n1
61 | 715 | CCOC(=O)c1cc(-c2ccccc2)n(CCC(=O)N2CCN(c3ccccn3)CC2)c1C
62 | 634 | COc1cccc(-c2n[nH]c3c2C(c2ccc(O)c(OC)c2)NC3=O)c1 (stereo unspecified)
63 | 887 | CCNC(=O)c1cccc(Nc2c(-c3ccc(SC)cc3)nc3cnccn23)c1
64 | 1010 | COc1ccccc1-c1nc2nccc(-c3cc4ccccc4o3)n2n1

Row | SMILES | RP-LC retention time [s]
65 | CCc1c(C(=O)O)nnn1Cc1ccc(OC)cc1 | 734
66 | O=C(CCCN1CCC2(CC1)C(=O)N(Cc1cccc(F)c1)CN2c1ccccc1)c1ccc(F)cc1 | 981
